Consider 19 molecules from patent publication US11673910B2, “Macrolides with modified desosamine sugars and uses thereof” (Zikani Therapeutics, Inc., priority 2017, dated 2023).

Values after ≈ are worked out from the molar mass of the structure shown.

What all share (format): cell-based
One assay concerns S. aureus strain MP-12. As to the kind of experiment: Broth dilution MIC determination (CLSI) against S. aureus strain MP-12. Conditions: for MIC against S. aureus (MP-12): strain MP-12; for MIC: Staphylococcus aureus, MP12, strain MP-12. The method, then:
(§1) Minimum inhibitory concentrations (MICs) for macrolides described herein were determined for E. coli strain MP-4, K. pneumoniae strain MP-548, P. aeruginosa strain MP-3, A. baumannii strain MP-15, and S. aureus strain MP-12 using similar test procedures as published in US Pat. Pub. No. 2017/0305953. MIC data is represented as “+++” for values less than or equal to 4 mg/L, “++” for values of greater than or equal to 8 mg/L and less than 32 mg/L, and “+” for values of 32 mg/L or greater. ND indicates no data for a particular compound. CLSI standard procedures for broth dilution MIC determination were used.
Background: In broth dilution the organism is exposed to a series of concentrations in liquid medium.

In the next assay the test system is E. coli strain MP-4. As to the kind of experiment: Broth dilution MIC determination (CLSI) against E. coli strain MP-4. Conditions: Escherichia coli, MP4. The protocol:
as §1

Assay [1] concerns A. baumannii strain MP-15. Briefly: Broth dilution MIC determination (CLSI) against A. baumannii strain MP-15. Conditions: Acinetobacter baumannii, MP15. The method, then: as §1
For assay [2], the system named is P. aeruginosa strain MP-3. Briefly: Broth dilution MIC determination (CLSI) against P. aeruginosa strain MP-3. The settings on record: Pseudomonas aeruginosa, MP3. The protocol:
as §1

Assay [3] deals with K. pneumoniae strain MP-548. As to the kind of experiment: Broth dilution MIC determination (CLSI) against K. pneumoniae strain MP-548. Conditions: Klebsiella pneumoniae, MP548. The method, then:
as §1

On to “3-Descladinosyl-3-oxo-6-O-methyl-N9a-desmethyl-11,12-dideoxy-12,11-(oxycarbonylimino)-6,11-(Z-2-butenyl)-6′-cyclopropylamino azithromycin [Compound 230]”, for which, in the assay on S. aureus strain MP-12, the “MIC against S. aureus (MP-12)” value is “+ (values of 32 mg/L or greater)”.
Regarding `CC[C@H]1OC(=O)C(C)C(=O)[C@H](C)[C@@H](O[C@@H]2OC(CNCc3ccc(F)cc3)CC(N(C)C)C2O)[C@](C)(OC)C[C@@H](C)CN[C@H](C)[C@H]2NC(=O)O[C@@]21C` (some centres unmarked) [Compound 18], the MIC with E. coli strain MP-4 is at most 4 µg/mL; in assay [1] it was at least 32 µg/mL; in assay [2] it was at least 32 µg/mL; in the assay with S. aureus strain MP-12, at least 32 µg/mL; in assay [3] it was 8 to 32 µg/mL (≈ 10.9 to 43.4 µM).
As for `CC[C@H]1OC(=O)C(C)C(=O)[C@H](C)[C@@H](O[C@@H]2OC(CNCc3cccc(-c4cncnc4)c3)CC(N(C)C)C2O)[C@](C)(OC)C[C@@H](C)CN[C@H](C)[C@H]2NC(=O)O[C@@]21C` (some centres unmarked) [Compound 20], the minimal inhibitory concentration (MIC) is at most 4 µg/mL against E. coli strain MP-4; at least 32 µg/mL in assay [1]; at least 32 µg/mL in assay [2]; at least 32 µg/mL against S. aureus strain MP-12; at least 32 µg/mL in assay [3].
In the case of `CC[C@H]1OC(=O)C(C)C(=O)[C@H](C)[C@@H](O[C@@H]2OC(CNCc3ccn(C)n3)CC(N(C)C)C2O)[C@](C)(OC)C[C@@H](C)CN[C@H](C)[C@H]2NC(=O)O[C@@]21C` (some centres unmarked) [Compound 21], the MIC (against E. coli strain MP-4; in assay [1]; in assay [2]; in the assay with S. aureus strain MP-12; in assay [3]) was at least 32 µg/mL throughout.
For the molecule `CC[C@H]1OC(=O)C(C)C(=O)[C@H](C)[C@@H](O[C@@H]2OC(CNCc3cccc(Oc4cnccn4)c3)CC(N(C)C)C2O)[C@](C)(OC)C[C@@H](C)CN[C@H](C)[C@H]2NC(=O)O[C@@]21C` (some centres unmarked) [Compound 22], the MIC is 8 to 32 µg/mL (≈ 9.84 to 39.4 µM) in the assay with E. coli strain MP-4; at least 32 µg/mL in assay [1]; at least 32 µg/mL in assay [2]; at least 32 µg/mL in the assay with S. aureus strain MP-12; at least 32 µg/mL in assay [3].
As to `CC[C@H]1OC(=O)C(C)C(=O)[C@H](C)[C@@H](O[C@@H]2OC(CNCc3ccc4nccnc4c3)CC(N(C)C)C2O)[C@](C)(OC)C[C@@H](C)CN[C@H](C)[C@H]2NC(=O)O[C@@]21C` (some centres unmarked) [Compound 23], the MIC was at most 4 µg/mL with E. coli strain MP-4; at least 32 µg/mL in assay [1]; at least 32 µg/mL in assay [2]; at least 32 µg/mL against S. aureus strain MP-12; at least 32 µg/mL in assay [3].
As to `CC[C@H]1OC(=O)C(C)C(=O)[C@H](C)[C@@H](O[C@@H]2OC(CNCc3cn(-c4cncnc4)nn3)CC(N(C)C)C2O)[C@](C)(OC)C[C@@H](C)CN[C@H](C)[C@H]2NC(=O)O[C@@]21C` (some centres unmarked) [Compound 24], the minimum inhibitory concentration (MIC) (in the assay on E. coli strain MP-4; in assay [1]; in assay [2]; against S. aureus strain MP-12; in assay [3]) was at least 32 µg/mL in each case.
For `CC[C@H]1OC(=O)C(C)C(=O)[C@H](C)[C@@H](O[C@@H]2OC(CNCc3nccn3C)CC(N(C)C)C2O)[C@](C)(OC)C[C@@H](C)CN[C@H](C)[C@H]2NC(=O)O[C@@]21C` (some centres unmarked) [Compound 25], the MIC (with E. coli strain MP-4; in assay [1]; in assay [2]; against S. aureus strain MP-12; in assay [3]) was at least 32 µg/mL each time.
For `CC[C@H]1OC(=O)C(C)C(=O)[C@H](C)[C@@H](O[C@@H]2OC(CNCc3cncc(-n4cncn4)n3)CC(N(C)C)C2O)[C@](C)(OC)C[C@@H](C)CN[C@H](C)[C@H]2NC(=O)O[C@@]21C` (some centres unmarked) [Compound 26], the MIC (in the assay with E. coli strain MP-4; in assay [1]; in assay [2]; with S. aureus strain MP-12; in assay [3]) was at least 32 µg/mL each time.
Consider `CC[C@H]1OC(=O)C(C)C(=O)[C@H](C)[C@@H](O[C@@H]2OC(CNc3ccc4ncncc4c3)CC(N(C)C)C2O)[C@](C)(OC)C[C@@H](C)CN[C@H](C)[C@H]2NC(=O)O[C@@]21C` (some centres unmarked) [Compound 27], for which the minimal inhibitory concentration (MIC) against E. coli strain MP-4 was 8 to 32 µg/mL (≈ 10.6 to 42.3 µM); in assay [1], at least 32 µg/mL; in assay [2], at least 32 µg/mL; in the assay on S. aureus strain MP-12, at least 32 µg/mL; in assay [3], at least 32 µg/mL.
Regarding `CC[C@H]1OC(=O)C(C)C(=O)[C@H](C)[C@@H](O[C@@H]2OC(CNCc3ccccc3)CC(N(C)C)C2O)[C@](C)(OC)C[C@@H](C)CN[C@H](C)[C@H]2NC(=O)O[C@@]21C` (some centres unmarked) [Compound 28], the MIC against E. coli strain MP-4 is at most 4 µg/mL; in assay [1], at least 32 µg/mL; in assay [2], at least 32 µg/mL; with S. aureus strain MP-12, at least 32 µg/mL; in assay [3] it was at least 32 µg/mL.
As to `CC[C@H]1OC(=O)C(C)C(=O)[C@H](C)[C@@H](O[C@@H]2OC(CNCc3ccccc3F)CC(N(C)C)C2O)[C@](C)(OC)C[C@@H](C)CN[C@H](C)[C@H]2NC(=O)O[C@@]21C` (some centres unmarked) [Compound 29], the MIC against E. coli strain MP-4 is at most 4 µg/mL; in assay [1], at least 32 µg/mL; in assay [2], at least 32 µg/mL; with S. aureus strain MP-12, at least 32 µg/mL; in assay [3] it was at least 32 µg/mL.
Turning to `CC[C@H]1OC(=O)C(C)C(=O)[C@H](C)[C@@H](O[C@@H]2OC(CNCc3cccc(F)c3)CC(N(C)C)C2O)[C@](C)(OC)C[C@@H](C)CN[C@H](C)[C@H]2NC(=O)O[C@@]21C` (some centres unmarked) [Compound 30], the MIC against E. coli strain MP-4 is at most 4 µg/mL; in assay [1], at least 32 µg/mL; in assay [2] it was at least 32 µg/mL; against S. aureus strain MP-12 it was at least 32 µg/mL; in assay [3], at least 32 µg/mL.
Regarding `CC[C@H]1OC(=O)C(C)C(=O)[C@H](C)[C@@H](OC2OC(CNCC3CC3)CC(N(C)C)C2O)[C@](C)(OC)C[C@@H](C)CN[C@H](C)[C@H]2NC(=O)O[C@@]21C` (some centres unmarked) [Compound 119, 3-Descladinosyl-3-oxo-6-O-methyl-N9a-desmethyl-11,12-dideoxy-12,11-(oxycarbonylimino)-6′-(cyclopropylmethylamino) Azithromycin], the MIC was at most 4 µg/mL against E. coli strain MP-4, at least 32 µg/mL in assay [1], at least 32 µg/mL against S. aureus strain MP-12 and 8 to 32 µg/mL (≈ 11.7 to 46.9 µM) in assay [3].
`CC[C@H]1OC(=O)[C@]2(C)CCO[C@](C)(C[C@@H](C)CN[C@H](C)[C@H]3NC(=O)O[C@@]31C)[C@H](O[C@@H]1O[C@H](CNC3CC3)C[C@H](N(C)C)[C@H]1O)[C@@H](C)C2=O` [Compound 203]: the MIC (in assay [2]; with S. aureus strain MP-12) was at least 32 µg/mL throughout.
With `CC[C@H]1OC(=O)[C@]2(C)CCOC(C)(C[C@@H](C)CN[C@H](C)[C@H]3NC(=O)O[C@@]31C)[C@H](O[C@@H]1O[C@H](CNC34CC(C3)C4)C[C@H](N(C)C)[C@H]1O)[C@@H](C)C2=O` [Compound 205], the “MIC against S. aureus (MP-12)” value with S. aureus strain MP-12 is recorded as “+ (values of 32 mg/L or greater)”.
On to `CC[C@H]1OC(=O)[C@]2(C)CCOC(C)(C[C@@H](C)CN[C@H](C)[C@H]3NC(=O)O[C@@]31C)[C@H](O[C@@H]1O[C@H](CNCC(F)(F)F)C[C@H](N(C)C)[C@H]1O)[C@@H](C)C2=O` [Compound 207], for which the MIC in the assay on S. aureus strain MP-12 was at least 32 µg/mL.
`CC[C@H]1OC(=O)[C@@]2(C)CCOC(C)(C[C@@H](C)CN(CC(C)C)[C@H](C)[C@H]3NC(=O)O[C@@]31C)[C@H](O[C@@H]1OC(C)CC(N(C)C)C1O)[C@@H](C)C2=O` (some centres unmarked) [Compound 222]: the MIC in the assay on S. aureus strain MP-12 lay within 8 to 32 µg/mL (≈ 11.7 to 46.9 µM).
On the same count and under the same terms, the result for `CCC1CO[C@@]2(C)C[C@@H](C)CN[C@H](C)[C@H]3NC(=O)O[C@]3(C)[C@@H](CC)OC(=O)[C@@]1(C)C(=O)[C@H](C)[C@H]2OC1OC(C)CC(N(C)C)C1O` (some centres unmarked) [Compound 225] reads at least 32 µg/mL.

One may read the MIC as the lowest concentration found to suppress growth.
